Laboratory results from patent US11752159B2, “Compositions and methods for suppressing or reducing systemic immune response in a subject” (THE TRUSTEES OF THE UNIVERSITY OF PENNSYLVANIA, priority 2015, dated 2023).

What was measured:
[1] = system: Tregs and conventional CD4+ T cells (Tconvs); test: BrdU incorporation in splenic Tregs and conventional T cells; type: in vivo, mice; conditions: spleen, Day 8, topical 2 nmol daily
From the text: FIGS. 4A-4B comprise graphs illustrating data derived from topical treatment of B6 mice with EtOH or MC903 (2 nmol) daily and BrdU (intraperitoneal injection as a loading dose, followed by administration of drinking water) for the last 3 days. FIG. 4A illustrates Bromodeoxyuridine (BrdU) incorporation in Tregs on Day 8 in the spleen of B6 mice. FIG. 4B illustrates BrdU incorporation in conventional T cells (Tconvs) on Day 8 in the spleen of B6 mice.
(§1) Next, the kinetics of the systemic increase in Treg levels was investigated after topical MC903 treatment (treatment stopped on Day 7). The absolute number and the fraction of Tregs increased to a peak between days 6 and 9 and gradually declined thereafter in the spleen and the blood of MC903-treated mice (FIGS. 3A-3B). Circulating TSLP levels peaked at Day 6 and fell abruptly by Day 9 (FIG. 3C).

[2] = system: NOD mice; test: NOD mouse model of type I diabetes, topical MC903; type: in vivo
From the text: FIGS. 5A-5B comprise graphs illustrating data derived from topical treatment of NOD mice with EtOH or MC903 (2 nmol) 3 times/week every other week at Week 5 of age; treatment was stopped at Week 15 of age. FIG. 5A illustrates the percentage of Tregs out of CD4+ T cells in the blood of NOD mice before (Day 0) and after treatment (Day 8). […] The % of mice with diabetes is plotted over the age of the mice (N=7 mice/group-EtOH; N=8 mice/group-MC903).
To test whether topical treatment with MC903 would lead to amerilioration of inflammatory disorders, it was tested whether topical application of MC903 protected a mouse against type I diabetes (T1D), using a non-obese diabetes (NOD) mouse model of diabetes. NOD mice were treated 3 times a week with MC903 on alternating ears every week.

[3] = system: Tregs; test: Treg % in blood and spleen after topical vitamin D3 analogs; type: in vivo, mice; conditions: topical MC903, summary statement of Example 6
From the text: FIGS. 10A-10B comprise bar graphs illustrating data derived from topically treating mice with EtOH or EB1089 (0.04 nmol/ear) for 5 days and bleeding them on Day 7. Treg % from (FIG. 10A) blood and (FIG. 10B) spleen are illustrated. N=3 mice/group. *p<0.01 by Student t-test.
(§2) VDR stimulation of keratinocytes led to TSLP production, which in certain embodiments caused increase in Treg numbers. The effects of two vitamin D3 analogs (22-Oxacalcitriol, also known as 22-OXA, and EB1089) on TSLP production and Treg numbers were evaluated. Similarly to MC903, 22-OXA and EB1089 were applied to the ear skin bilaterally at a dose of 2 nmol/ear dissolved in ethanol. After 5 days of treatment, the mice were bled and serum TSLP levels were measured. […] To avoid the toxic effect, the dose of 22-OXA and EB1089 was lowered to a point where morbidity and mortality of mice was not observed (0.4 nmol/ear for 22-OXA; 0.04 nmol/ear for EB1089). At this dose, no increase in TSLP level was detected in 22-OXA-treated mice (FIG. 9B).

[4] = system: Tregs; test: Dosing schedule of chronic topical MC903: circulating Tregs and atopic dermatitis; type: in vivo, mice
From the text: FIG. 11 comprises a graph illustrating data derived from topically treating mice with MC903 (2 nmol on one ear) 3 times/week every other week or with MC903 (2 nmol on one ear) 3 times/week every week (alternating ears every week) for 8 weeks. The % of Tregs out of CD4+ T cells in the blood before (baseline) and after treatment (Weeks 1, 4, 6, and 8) is illustrated. N=3 mice/group. * p<0.05 by Student t-test.
FIG. 12 comprises a graph illustrating data derived from topically treating mice with EtOH or MC903 (2 nmol) 3 times/week every other week for 10 weeks. The % of Tregs out of CD4+ T cells in the blood before (Day 0) and after treatment (Day 8 and Week 10) is illustrated. N=7 mice/group.
To test whether chronic MC903 treatment results in sustained increases in Treg numbers, mice were continuously treated with MC903 for more than 2 weeks.
To avoid this local toxic effect of MC903, alternating ears were treated every week (right ear for 1 week, followed by the left ear for 1 week, then back to the right ear for 1 week, and so on). […] Without wishing to be limited by any theory, the increase in Tregs appeared to be become refractory to the chronic MC903 treatment. Thus, the protocol was modified so that a 1-week rest period (pulse treatment) was given between weekly treatments.

[5] = system: thymic stromal lymphopoietin (TSLP); test: Circulating (serum) TSLP level over time after topical MC903; type: in vivo, mice; conditions: topical MC903, treatment stopped on Day 7; fell abruptly by Day 9
From the text: FIG. 3A-3C comprise graphs illustrating data derived from topical treatment of B6 mice with EtOH or MC903 (2 nmol) until […]. Mice were taken at different time points post treatment initiation as indicated. FIG. 3A is a graph illustrating the percentage of Tregs out of CD4+ T cells in the spleen and blood of B6 mice over 18 days. FIG. 3B illustrates the absolute numbers of Tregs in the spleen of B6 mice over 18 days. FIG. 3C illustrates the serum thymic stromal lymphopoietin (TSLP) level change over time in B6 mice over 18 days.
as §1

[6] = Toxicity (morbidity and mortality) of topical vitamin D3 analogs in mice; type: in vivo; conditions: mouse, in vivo
Description: as §2

[7] = system: C57BL6 mice; test: High fat diet (HFD) type II diabetes mouse model, topical MC903; type: in vivo; conditions: topical three times a week every other week, vs ethanol
Description: FIG. 13 comprises a graph illustrating the finding that topical administration of MC903 improves overnight fasting glucose levels in mice fed with 12 weeks of high fat diet (HFD).
Topical administration of MC903 was evaluated in a model of high fat diet (HFD) type II diabetes mice. Male C57BL6 mice, which were 8 weeks at the onset of the study, were used. The mice were fed a high fat diet (45 kcal % of fat; research diet No. D12451, OpenSource Diets) for 20 weeks. During this period, the mice were topically administered ethanol or MC903 three times a week (Monday, Wednesday and Friday), every other week, for the duration of the experiment.

[8] = 3 days (every other day)/week every other week

SMILES: C=C1/C(=C\C=C2/CCC[C@]3(C)[C@@H]([C@H](C)/C=C/[C@@H](O)C4CC4)CC[C@@H]23)C[C@@H](O)C[C@@H]1O [MC903, 26,27-cyclo-22-ene-1α,24S-dihydroxyvitamin D3]
- BrdU incorporation by Tregs [1]: enhanced
- BrdU incorporation by conventional CD4+ T cells (Tconvs) [1]: no significant increase
- circulating Treg levels ([2]; Day 8 post-treatment, compared to vehicle): increased
- atopic dermatitis under treatment protocol ([2]; topical 3 times a week on alternating ears, 8 weeks): little to no evidence of atopic dermatitis
- incidence of T1D (two consecutive blood glucose readings >250 mg/dl) ([2]; topical MC903 compared to vehicle): significantly attenuated
- systemic Treg numbers [3]: increase systemic Treg numbers
- atopic inflammation, pulse treatment [4, 8]: atopic inflammation was avoided
- circulating Treg numbers, pulse treatment [4, 8]: increased over a 10 week period
- Tregs at Day 8, alternating ear protocol ([4]; alternating ears every week, Day 8): increased systemically
- circulating Tregs at Week 4 of treatment and beyond, alternating ear protocol ([4]; alternating ears every week, no rest week): not increased
- atopic dermatitis with alternating ear protocol ([4]; alternating ears treated every week): minimal atopic dermatitis
- local toxicity with chronic once/day treatment of more than 1 week ([4]; mouse, in vivo): development of atopic dermatitis of the ear skin
- time of peak of circulating TSLP levels [5]: 6 days
- systemic toxicity [6]: without any apparent systemic toxicity
- overnight fasting glucose levels [7]: improved overnight fasting glucose levels
